Data taken from PubChem BioAssay AID1918952 (Molecular Pharmacology Branch, DTP, NCI, 2023).
Where “and” joins values, the source holds several entries; their conditions need not be identical. Equal values may be shown once.

Tested on: LG0703-F948-PDC complex spheroid viability
Assay: Anticancer human tumor LG0703-F948-PDC patient-derived lung adenocarcinoma cell line growth inhibition
Conditions: for viability, T/C: stronger effect = lower value
Outline: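 Complex spheroids of tumor cells with HUVEC and human MSCs, exposed to iadademstat combined with other agents. Each agent tested in half-log steps from near clinical Cmax (else 10 microM top), DMSO ≤0.25%.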

[1] = curve of first compound, second compound 0.1 µM
[2] = curve of first compound, second compound 0.316 µM
[3] = curve of first compound, second compound 1 µM
[4] = curve of first compound, second compound 3.16 µM
[5] = curve of first compound, second compound 10 µM
[6] = second compound 0.1 µM, first compound 0.00949 µM
[7] = second compound 0.1 µM, first compound 0.03 µM
[8] = second compound 0.1 µM, first compound 0.0949 µM
[9] = second compound 0.1 µM, first compound 0.3 µM
[10] = second compound 0.316 µM, first compound 0.00949 µM
[11] = second compound 0.316 µM, first compound 0.03 µM
[12] = second compound 0.316 µM, first compound 0.0949 µM
[13] = second compound 0.316 µM, first compound 0.3 µM
[14] = second compound 1 µM, first compound 0.00949 µM
[15] = second compound 1 µM, first compound 0.03 µM
[16] = second compound 1 µM, first compound 0.0949 µM
[17] = second compound 1 µM, first compound 0.3 µM
[18] = second compound 3.16 µM, first compound 0.00949 µM
[19] = second compound 3.16 µM, first compound 0.03 µM
[20] = second compound 3.16 µM, first compound 0.0949 µM
[21] = second compound 3.16 µM, first compound 0.3 µM
[22] = second compound 10 µM, first compound 0.00949 µM
[23] = second compound 10 µM, first compound 0.03 µM
[24] = second compound 10 µM, first compound 0.0949 µM
[25] = second compound 10 µM, first compound 0.3 µM
[26] = second compound 0.1 µM, first compound 0.949 µM
[27] = second compound 0.1 µM, first compound 3 µM
[28] = second compound 0.316 µM, first compound 0.949 µM
[29] = second compound 0.316 µM, first compound 3 µM
[30] = second compound 1 µM, first compound 0.949 µM
[31] = second compound 1 µM, first compound 3 µM
[32] = second compound 3.16 µM, first compound 0.949 µM
[33] = second compound 3.16 µM, first compound 3 µM
[34] = second compound 10 µM, first compound 0.949 µM
[35] = second compound 10 µM, first compound 3 µM
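Also: spheroids exposed to agents for seven days before readout.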
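For viability, T/C in this document: 100% = DMSO vehicle control wells as normalization base.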

Nc1ccn(C2OC(CO)C(O)C2(F)F)c(=O)n1 (configuration not stated) + NC1CC1c1ccc(-c2cccc(O)c2)cc1
IC50 [1]: 12.6 nM
IC50 [2]: 74.2 nM
IC50 [3]: 100 nM
IC50 [4]: 145 nM
IC50 [5]: > 300 nM
viability, T/C (second compound 0.1 µM, first compound 0.000949 µM): 79%
viability, T/C (second compound 0.1 µM, first compound 0.003 µM): 50.8%
viability, T/C [6]: 51.9%
viability, T/C [7]: 56.6%
viability, T/C [8]: 43.9%
viability, T/C [9]: 32.3%
viability, T/C (second compound 0.316 µM, first compound 0.000949 µM): 70.2%
viability, T/C (second compound 0.316 µM, first compound 0.003 µM): 63.9%
viability, T/C [10]: 66.8%
viability, T/C [11]: 54%
viability, T/C [12]: 48.9%
viability, T/C [13]: 37.6%
viability, T/C (second compound 1 µM, first compound 0.000949 µM): 76.9%
viability, T/C (second compound 1 µM, first compound 0.003 µM): 66.5%
viability, T/C [14]: 63.6%
viability, T/C [15]: 60.1%
viability, T/C [16]: 51.9%
viability, T/C [17]: 40.3%
viability, T/C (second compound 3.16 µM, first compound 0.000949 µM): 81.5%
viability, T/C (second compound 3.16 µM, first compound 0.003 µM): 80.6%
viability, T/C [18]: 87.3%
viability, T/C [19]: 66%
viability, T/C [20]: 57.1%
viability, T/C [21]: 41.4%
viability, T/C (second compound 10 µM, first compound 0.000949 µM): 87%
viability, T/C (second compound 10 µM, first compound 0.003 µM): 78.3%
viability, T/C [22]: 83.9%
viability, T/C [23]: 68.9%
viability, T/C [24]: 59%
viability, T/C [25]: 51.5%

Nc1ccccc1NC(=O)c1ccc(CNC(=O)OCc2cccnc2)cc1
viability, T/C (compound 0.00949 µM): 100% and 75.3%
viability, T/C (compound 0.03 µM): 101% and 76.5%
viability, T/C (compound 0.0949 µM): 68.7% and 63.2%
viability, T/C (compound 0.3 µM): 21.4% and 17.3%
viability, T/C (compound 0.949 µM): 1.46% and 1.45%
viability, T/C (compound 3 µM): 0.48% and 0.84%
IC50 (curve of compound): 151 nM and 132 nM

CCN(c1cc(-c2ccc(CN3CCOCC3)cc2)cc(C(=O)NCc2c(C)cc(C)[nH]c2=O)c1C)C1CCOCC1 + NC1CCC(NC2CC2c2ccccc2)CC1
IC50 [1]: > 3000 nM
IC50 [2]: > 3000 nM
IC50 [3]: > 3000 nM
IC50 [4]: > 3000 nM
IC50 [5]: > 3000 nM
viability, T/C [6]: 105%
viability, T/C [7]: 106%
viability, T/C [8]: 96.2%
viability, T/C [9]: 108%
viability, T/C [26]: 119%
viability, T/C [27]: 128%
viability, T/C [10]: 107%
viability, T/C [11]: 130%
viability, T/C [12]: 106%
viability, T/C [13]: 112%
viability, T/C [28]: 111%
viability, T/C [29]: 112%
viability, T/C [14]: 128%
viability, T/C [15]: 116%
viability, T/C [16]: 113%
viability, T/C [17]: 133%
viability, T/C [30]: 128%
viability, T/C [31]: 127%
viability, T/C [18]: 124%
viability, T/C [19]: 131%
viability, T/C [20]: 144%
viability, T/C [21]: 138%
viability, T/C [32]: 121%
viability, T/C [33]: 141%
viability, T/C [22]: 120%
viability, T/C [23]: 131%
viability, T/C [24]: 134%
viability, T/C [25]: 118%
viability, T/C [34]: 118%
viability, T/C [35]: 105%

COc1cc(C2c3cc4c(cc3C(OC3OC5COC(C)OC5C(O)C3O)C3COC(=O)C23)OCO4)cc(OC)c1O (configuration not stated) + NC1CC1c1ccc(-c2cccc(O)c2)cc1
IC50 [1]: > 3000 nM
IC50 [2]: > 3000 nM
IC50 [3]: > 3000 nM
IC50 [4]: > 3000 nM
IC50 [5]: > 3000 nM
viability, T/C [6]: 117%
viability, T/C [7]: 126%
viability, T/C [8]: 101%
viability, T/C [9]: 98.5%
viability, T/C [26]: 89.5%
viability, T/C [27]: 66.9%
viability, T/C [10]: 117%
viability, T/C [11]: 111%
viability, T/C [12]: 106%
viability, T/C [13]: 88.4%
viability, T/C [28]: 92.2%
viability, T/C [29]: 75.4%
viability, T/C [14]: 104%
viability, T/C [15]: 115%
viability, T/C [16]: 105%
viability, T/C [17]: 95.9%
viability, T/C [30]: 105%
viability, T/C [31]: 77.8%
viability, T/C [18]: 102%
viability, T/C [19]: 121%
viability, T/C [20]: 117%
viability, T/C [21]: 100%
viability, T/C [32]: 88.1%
viability, T/C [33]: 86.2%
viability, T/C [22]: 104%
viability, T/C [23]: 116%
viability, T/C [24]: 99.9%
viability, T/C [25]: 103%
viability, T/C [34]: 81.6%
viability, T/C [35]: 66.8%

CC(C)c1c(-c2ccccc2)nc2c(C#N)c[nH]n2c1=O + NC1CC1c1ccc(-c2cccc(O)c2)cc1
IC50 [1]: > 10000 nM
IC50 [2]: > 10000 nM
IC50 [3]: > 10000 nM
IC50 [4]: > 10000 nM
IC50 [5]: > 10000 nM
viability, T/C (second compound 0.1 µM, first compound 0.0316 µM): 107%
viability, T/C (second compound 0.1 µM, first compound 0.1 µM): 102%
viability, T/C (second compound 0.1 µM, first compound 0.316 µM): 115%
viability, T/C (second compound 0.1 µM, first compound 1 µM): 94.3%
viability, T/C (second compound 0.1 µM, first compound 3.16 µM): 110%
viability, T/C (second compound 0.1 µM, first compound 10 µM): 82.7%
viability, T/C (second compound 0.316 µM, first compound 0.0316 µM): 97.5%
viability, T/C (second compound 0.316 µM, first compound 0.1 µM): 106%
viability, T/C (second compound 0.316 µM, first compound 0.316 µM): 117%
viability, T/C (second compound 0.316 µM, first compound 1 µM): 108%
viability, T/C (second compound 0.316 µM, first compound 3.16 µM): 104%
viability, T/C (second compound 0.316 µM, first compound 10 µM): 91.8%
viability, T/C (second compound 1 µM, first compound 0.0316 µM): 102%
viability, T/C (second compound 1 µM, first compound 0.1 µM): 109%
viability, T/C (second compound 1 µM, first compound 0.316 µM): 109%
viability, T/C (second compound 1 µM, first compound 1 µM): 109%
viability, T/C (second compound 1 µM, first compound 3.16 µM): 90.6%
viability, T/C (second compound 1 µM, first compound 10 µM): 69.7%
viability, T/C (second compound 3.16 µM, first compound 0.0316 µM): 97.7%
viability, T/C (second compound 3.16 µM, first compound 0.1 µM): 93.4%
viability, T/C (second compound 3.16 µM, first compound 0.316 µM): 92.5%
viability, T/C (second compound 3.16 µM, first compound 1 µM): 99.8%
viability, T/C (second compound 3.16 µM, first compound 3.16 µM): 80.3%
viability, T/C (second compound 3.16 µM, first compound 10 µM): 82.3%
viability, T/C (second compound 10 µM, first compound 0.0316 µM): 97.9%
viability, T/C (second compound 10 µM, first compound 0.1 µM): 97.6%
viability, T/C (second compound 10 µM, first compound 0.316 µM): 94.9%
viability, T/C (second compound 10 µM, first compound 1 µM): 85.3%
viability, T/C (second compound 10 µM, first compound 3.16 µM): 88.8%
viability, T/C (second compound 10 µM, first compound 10 µM): 74.2%

NS(=O)(=O)OCC1CC(n2ccc3c(NC4CCc5ccccc54)ncnc32)CC1O (configuration not stated) + NC1CCC(NC2CC2c2ccccc2)CC1
IC50 [1]: 546 nM
IC50 [2]: 607 nM
IC50 [3]: 670 nM
IC50 [4]: 633 nM
IC50 [5]: 467 nM
viability, T/C [6]: 106%
viability, T/C [7]: 111%
viability, T/C [8]: 106%
viability, T/C [9]: 70.7%
viability, T/C [26]: 31.4%
viability, T/C [27]: 19.1%
viability, T/C [10]: 111%
viability, T/C [11]: 123%
viability, T/C [12]: 109%
viability, T/C [13]: 80.5%
viability, T/C [28]: 30.7%
viability, T/C [29]: 17.1%
viability, T/C [14]: 113%
viability, T/C [15]: 144%
viability, T/C [16]: 105%
viability, T/C [17]: 83.3%
viability, T/C [30]: 35.9%
viability, T/C [31]: 16.2%
viability, T/C [18]: 124%
viability, T/C [19]: 141%
viability, T/C [20]: 112%
viability, T/C [21]: 82.5%
viability, T/C [32]: 32.4%
viability, T/C [33]: 13.6%
viability, T/C [22]: 124%
viability, T/C [23]: 124%
viability, T/C [24]: 124%
viability, T/C [25]: 69.3%
viability, T/C [34]: 20.4%
viability, T/C [35]: 8.21%
